Patent US8048879B2, “Substituted 4,5,6,7-tetrahydro-isoxazolo[4,5-c]pyridine compounds and use thereof for producing medicaments” (Gruenenthal GmbH, priority 2005, dated 2011)

molecular target: T1, 5-HT transporter (Rattus norvegicus, UniProt P31652); test: 5-HT uptake inhibition, synaptosomes from rat brain (medulla and pons); format: biochemical; conditions: not given
T1 construct: from tissue; host or cells: rat brain (medulla and pons), synaptosomes, P2 fraction
Excerpt: b) Method for Determining Noradrenalin and 5-HT Uptake Inhibition:
Synaptosomes from rat brain regions are freshly isolated for in vitro studies, as described in the publication “The isolation of nerve endings from brain” by E. G. Gray and V. P. Whittaker, J. Anatomy 96, pages 79-88, 1962. The corresponding literature description is hereby introduced as a reference and is deemed to be part of the disclosure.
The tissue (hypothalamus for the determination of noradrenalin uptake inhibition and medulla and pons for the determination of 5-HT uptake inhibition) is homogenised in ice-cooled 0.32 M sucrose (100 mg of tissue/1 mL) in a glass homogeniser with Teflon pestle using five complete up and down strokes at 840 revolutions/minute.
The homogenate is centrifuged at 4° C. for 10 minutes at 1000 g. After subsequent centrifugation at 17000 g for 55 minutes, the synaptosomes (P2 fraction) are obtained, which are resuspended in 0.32 M […] (0.5 mL/100 mg of original weight).
The particular uptake is measured in a 96-well microtitre plate. The volume is 250 μL and the incubation proceeds at room temperature (approx. 20-25° C.) under an O2 atmosphere.
The incubation time is 7.5 minutes for [^3H]-NA and 5 minutes for [^3H]-5-HT. The 96 samples are then filtered through a Unifilter GF/B® microtitre plate (Packard) and washed with 200 mL of incubated buffer using a “Brabdel MPXRI-96T Cell-Harvester”. The Unifilter GF/B plate is dried for 1 hour at 55° C. The plate is then sealed with a Back Seal® (Packard) and 35 μL of scintillation fluid are added per well (Ultima Gold®, Packard). After sealing with a top Seal® (Packard) and establishing an equilibrium (around 5 hours), radioactivity is determined in a “Trilux 1450 Microbeta” (Wallac).
The quantity of protein used in the above determination corresponds to the values known from the literature, as for example described in “Protein measurement with the folin phenol reagent”, Lowry et al., J. Biol. Chem., 193, 265-275, 1951.
A detailed description of the method may additionally be found in the literature, for example in M. Ch. Frink, H.-H. Hennies, W. Engelberger, M. Haurand and B. Wilffert (1996) Arzneim.-Forsch./Drug Res. 46 (III), 11, 1029-1036.
The following characteristics were determined for the NA or 5-HT transporter: […]

T1 sequence (P31652 whole entry): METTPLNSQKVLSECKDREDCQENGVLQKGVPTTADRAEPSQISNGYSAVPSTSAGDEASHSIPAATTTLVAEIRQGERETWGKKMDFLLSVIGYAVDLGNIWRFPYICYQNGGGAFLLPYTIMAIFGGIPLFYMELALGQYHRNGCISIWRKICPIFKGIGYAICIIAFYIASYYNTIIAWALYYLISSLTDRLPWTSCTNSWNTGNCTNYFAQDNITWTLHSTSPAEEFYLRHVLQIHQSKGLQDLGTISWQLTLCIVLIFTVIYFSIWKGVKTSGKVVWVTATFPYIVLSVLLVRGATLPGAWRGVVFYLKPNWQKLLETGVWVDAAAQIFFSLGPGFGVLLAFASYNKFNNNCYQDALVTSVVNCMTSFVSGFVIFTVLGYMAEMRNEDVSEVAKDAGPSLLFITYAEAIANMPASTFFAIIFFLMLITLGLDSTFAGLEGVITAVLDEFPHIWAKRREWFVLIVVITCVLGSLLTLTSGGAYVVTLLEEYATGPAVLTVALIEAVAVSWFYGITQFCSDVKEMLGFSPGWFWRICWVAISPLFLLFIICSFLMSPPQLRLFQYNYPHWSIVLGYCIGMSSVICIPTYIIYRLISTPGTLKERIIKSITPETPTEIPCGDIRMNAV

Point of comparison: `COc1ccc(S(=O)(=O)N2CCc3onc(C(=O)NC(CCC(=O)OC(C)(C)C)C(N)=O)c3C2)cc1` (centres unmarked) [Example 88, 4-carbamoyl-4-{[5-(4-methoxy-benzenesulfonyl)-4,5,6,7-tetrahydro-isoxazolo[4,5-c]pyridine-3-carbonyl]-amino}-butanoic acid tert-butyl ester], inhibition at 10 µM 62%. Against it:
- COc1ccc(CC(=O)N2CCc3onc(C(=O)NCc4ccccc4)c3C2)cc1 [Example 79, 5-[2-(4-methoxyphenyl)-acetyl]-4,5,6,7-tetrahydro-isoxazolo[4,5-c]pyridine-3-carboxylic acid benzyl amide] — higher, 71%
- CN(CCCNC(=O)c1noc2c1CN(S(=O)(=O)c1ccc(OC(F)(F)F)cc1)CC2)c1ccccc1 [Example 80, 5-(4-trifluoromethoxy-benzenesulfonyl)-4,5,6,7-tetrahydro-isoxazolo[4,5-c]pyridine-3-carboxylic acid [3-(methylphenyl-amino)-propyl] amide] — higher, 65%
- Cc1ccc(S(=O)(=O)N2CCc3onc(C(=O)N4CCN(CCC5CCCCC5)CC4)c3C2)cc1 [Example 82, [4-(2-cyclohexyl-ethyl)-piperazin-1-yl]-[5-(toluene-4-sulfonyl)-4,5,6,7-tetrahydro-isoxazolo[4,5-c]pyridin-3-yl]-methanone] — the same, 62%
- O=C(c1noc2c1CN(S(=O)(=O)c1cc(Cl)ccc1Cl)CC2)N1CCC(CNC(=O)C(F)(F)F)CC1 [Example 83, N-{1-[5-(2,5-dichloro-benzenesulfonyl)-4,5,6,7-tetrahydro-isoxazolo[4,5-c]pyridine-3-carbonyl]-piperidin-4-ylmethyl}-2,2,2-trifluoroacetamide] — lower, 61%
- COc1ccc(C(C)NC(=O)c2noc3c2CN(S(=O)(=O)c2ccc(OC)cc2)CC3)cc1 (centres unmarked) [Example 84, 5-(4-methoxy-benzenesulfonyl)-4,5,6,7-tetrahydro-isoxazolo[4,5-c]pyridine-3-carboxylic acid [1-(4-methoxyphenyl)-ethyl] amide] — higher, 69%
- CCOC(=O)C(C)NC(=O)c1noc2c1CN(S(=O)(=O)c1cccs1)CC2 (centres unmarked) [Example 85, 2-{[5-(thiophene-2-sulfonyl)-4,5,6,7-tetrahydro-isoxazolo[4,5-c]pyridine-3-carbonyl]-amino}-propionic acid ethyl ester] — higher, 67%
- C=CCOc1ccc(CN(Cc2ccco2)C(=O)c2noc3c2CN(S(=O)(=O)c2cccc(C(F)(F)F)c2)CC3)cc1 [Example 87, 5-(3-trifluoromethyl-benzenesulfonyl)-4,5,6,7-tetrahydro-isoxazolo[4,5-c]pyridine-3-carboxylic acid (4-allyloxy-benzyl)-furan-2-ylmethyl amide] — higher, 66%
- CSc1ccc(CN(Cc2ccco2)C(=O)c2noc3c2CN(S(=O)(=O)N(C)C)CC3)cc1 [Example 89, 5-dimethylsulfamoyl-4,5,6,7-tetrahydro-isoxazolo[4,5-c]pyridine-3-carboxylic acid furan-2-ylmethyl-(4-methylsulfanyl-benzyl) amide] — higher, 64%
- Cc1cc(C(=O)N2CCc3onc(C(=O)NCCN4CCOCC4)c3C2)ccc1Br [Example 90, 5-(4-bromo-3-methyl-benzoyl)-4,5,6,7-tetrahydro-isoxazolo[4,5-c]pyridine-3-carboxylic acid (2-morpholin-4-yl-ethyl) amide] — higher, 65%
- Cc1ccc(S(=O)(=O)N2CCc3onc(C(=O)NC4CCN(Cc5c(Cl)cccc5Cl)C4)c3C2)cc1 (centres unmarked) [Example 91, 5-(toluene-4-sulfonyl)-4,5,6,7-tetrahydro-isoxazolo[4,5-c]pyridine-3-carboxylic acid [1-(2,6-dichloro-benzyl)-pyrrolidin-3-yl] amide] — higher, 67%
- O=C(NCCc1ccc(Cl)c(Cl)c1)c1noc2c1CN(S(=O)(=O)c1ccccc1)CC2 [Example 92, 5-benzenesulfonyl-4,5,6,7-tetrahydro-isoxazolo[4,5-c]pyridine-3-carboxylic acid [2-(3,4-dichloro-phenyl)-ethyl] amide] — lower, 61%
- CN(C)CCNC(=O)c1noc2c1CN(C(=O)c1cccc(SC(F)F)c1)CC2 [Example 93, 5-(3-difluoromethylsulfanyl-benzoyl)-4,5,6,7-tetrahydro-isoxazolo[4,5-c]pyridine-3-carboxylic acid (2-dimethylamino-ethyl) amide] — higher, 88%
- COc1ccc(S(=O)(=O)N2CCc3onc(C(=O)NCc4cccc(OC)c4OC)c3C2)cc1 [Example 95, 5-(4-methoxy-benzenesulfonyl)-4,5,6,7-tetrahydro-isoxazolo[4,5-c]pyridine-3-carboxylic acid 2,3-dimethoxy-benzyl amide] — higher, 68%
- CCOC(=O)CCNC(=O)c1noc2c1CN(C(=O)c1ccc(OC)cc1)CC2 [Example 98, 3-{[5-(4-methoxy-benzoyl)-4,5,6,7-tetrahydro-isoxazolo[4,5-c]pyridine-3-carbonyl]-amino}-propionic acid ethyl ester] — higher, 75%
- CN(C)CCNC(=O)c1noc2c1CN(C(=O)CCCOc1ccccc1)CC2 [Example 99, 5-(4-phenoxy-butyryl)-4,5,6,7-tetrahydro-isoxazolo[4,5-c]pyridine-3-carboxylic acid (2-dimethylamino-ethyl) amide] — higher, 69%
- Cc1cccc2c(CCNC(=O)c3noc4c3CN(S(=O)(=O)c3ccc(OC(F)(F)F)cc3)CC4)c[nH]c12 [Example 100, 5-(4-trifluoromethoxy-benzenesulfonyl)-4,5,6,7-tetrahydro-isoxazolo[4,5-c]pyridine-3-carboxylic acid [2-(7-methyl-1H-indol-3-yl)-ethyl] amide] — higher, 83%
- Cc1cc(C(=O)N2CCc3onc(C(=O)NCCN4CCCC4)c3C2)ccc1Br [Example 102, 5-(4-bromo-3-methyl-benzoyl)-4,5,6,7-tetrahydro-isoxazolo[4,5-c]pyridine-3-carboxylic acid (2-pyrrolidin-1-yl-ethyl) amide] — higher, 70%
- COc1ccc(OCCNC(=O)c2noc3c2CN(S(=O)(=O)c2ccccc2)CC3)cc1 [Example 106, 5-benzenesulfonyl-4,5,6,7-tetrahydro-isoxazolo[4,5-c]pyridine-3-carboxylic acid [2-(4-methoxy-phenoxy)-ethyl] amide] — higher, 76%
- CN(C)S(=O)(=O)N1CCc2onc(C(=O)NCc3ccc(C(F)(F)F)c(F)c3)c2C1 [Example 107, 5-dimethylsulfamoyl-4,5,6,7-tetrahydro-isoxazolo[4,5-c]pyridine-3-carboxylic acid 3-fluoro-4-trifluoromethyl-benzyl amide] — lower, 61%
- C#CCNC(=O)c1noc2c1CN(C(=O)c1cccc(C)c1)CC2 [Example 108, 5-(3-methyl-benzoyl)-4,5,6,7-tetrahydro-isoxazolo[4,5-c]pyridine-3-carboxylic acid prop-2-ynyl amide] — higher, 88%
- O=C(NCc1ccc(F)cc1F)c1noc2c1CN(S(=O)(=O)c1cc(Cl)ccc1Cl)CC2 [Example 112, 5-(2,5-dichloro-benzenesulfonyl)-4,5,6,7-tetrahydro-isoxazolo[4,5-c]pyridine-3-carboxylic acid 2,4-difluoro-benzyl amide] — higher, 71%
- O=C(NCc1ccc(C(F)(F)F)c(F)c1)c1noc2c1CN(S(=O)(=O)c1ccccc1)CC2 [Example 113, 5-benzenesulfonyl-4,5,6,7-tetrahydro-isoxazolo[4,5-c]pyridine-3-carboxylic acid 3-fluoro-4-trifluoromethyl-benzyl amide] — higher, 83%
- CCCCOc1ccc(S(=O)(=O)N2CCc3onc(C(=O)NCC(C)C)c3C2)cc1 [Example 114, 5-(4-butoxy-benzenesulfonyl)-4,5,6,7-tetrahydro-isoxazolo[4,5-c]pyridine-3-carboxylic acid isobutyl amide] — higher, 85%
- Cc1ccc(C(=O)N2CCc3onc(C(=O)NCCN4CCCC4)c3C2)cc1F [Example 115, 5-(3-fluoro-4-methyl-benzoyl)-4,5,6,7-tetrahydro-isoxazolo[4,5-c]pyridine-3-carboxylic acid (2-pyrrolidin-1-yl-ethyl) amide] — higher, 65%

same assay, conditions: 10 µM

With `O=C(NCCN1CCCC1)c1noc2c1CN(C(=O)COc1cccc(Cl)c1)CC2` [Example 94, 5-[2-(3-chlorophenoxy)-acetyl]-4,5,6,7-tetrahydro-isoxazolo[4,5-c]pyridine-3-carboxylic acid (2-pyrrolidin-1-yl-ethyl) amide] the “5-HT uptake (rat), 10 μM, % inhibition” value was 94%.
